Data set [1] concerns target transcript mRNA in A549 cells. Nature of the data set: Level of mRNA of target transcript in A549 cells by quantitative RT-PCR (Tables 12 and 13). In kind it is cell-based, human. Particulars: 24 h post-transfection; for mRNA knockdown of transporter gene target transcript, 0.1 nM: 0.1 nM siRNA; for mRNA knockdown of transporter gene target transcript, 1 nM: 1 nM siRNA. In outline: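 Target mRNA was measured by SYBR Green quantitative RT-PCR using random-primed cDNA, normalised to HPRT and Lamin. Samples came from A549 cells 24 h post-transfection with 0.1, 1.0 or 10 nM siRNA.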

The subject of the next data set is A549 cells. Nature of the data set: Growth inhibition of siRNA-transfected A549 cells, SYBR Green I DNA content. The class given is cell-based, human. The following applies: A549 cells, 10 nM siRNA, DNA content 96 hours after transfection, transporter gene targets. In short, it runs like this:
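Growth read-out: cellular DNA quantified with SYBR Green I (485/535 nm) 96 h after transfection, cells frozen, thawed and lysed in PBS/1% Triton X-100, pH 7. Cells (A549, 5×10^3 cells/cm^2) received 10 nM siRNA by RNAiMAX; non-specific siRNA served as control; triplicate wells averaged.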

Experimental findings from US20080145313A1, “Compositions and Methods for the Treatment and Prevention of Neoplastic Disorders” (Genesis Research & Development Corporation Limited, priority 2006, published 2008) are described below.

Regarding “SEQ ID NO: 4898: siRNA targeting SLC2A12 (GLUT12) (chain 1 TATTGTTGTTGGTTGACAGGTTTCC; chain 2 UAUUGUUGUUGGUUGACAGGUUUCC; Antisense strand given in DNA and RNA notation, chemistry not given here; one strand in two spellings)”, in data set [1], the “mRNA knockdown of transporter gene target transcript, 0.1 nM” value (“mRNA knockdown … 0.1 nM” for short) is listed as “+++ (>90% mRNA knockdown)” and the “mRNA knockdown of transporter gene target transcript, 1 nM” value is given as “+++ (>90% mRNA knockdown)”. The “Growth Inhibition in A549 cells by 10 nM siRNA” value (“Growth Inhibition in A549 cells” below) with A549 cells was “− (no growth inhibition)”.
Turning to “SEQ ID NO: 4973: siRNA targeting ABCC5 (MRP5) (chain 1 TAAGATGGCAACAACGGGTCCTCCA; chain 2 UAAGAUGGCAACAACGGGUCCUCCA; chemistry not given here; one strand in two spellings)”, in data set [1], the “mRNA knockdown … 0.1 nM” value is listed as “− (<50% mRNA knockdown)” and the “mRNA knockdown of transporter gene target transcript, 1 nM” value is “− (<50% mRNA knockdown)”. The “Growth Inhibition in A549 cells” value in the data set on A549 cells was “− (no growth inhibition)”.
Consider “SEQ ID NO: 4900: siRNA targeting SLC2A12 (GLUT12) (chain 1 TTGAAATATAGGCAGAAAGAATGCC; chain 2 UUGAAAUAUAGGCAGAAAGAAUGCC; Antisense strand given in DNA and RNA notation, chemistry not given here; one strand in two spellings)”, for which, in data set [1], the “mRNA knockdown … 0.1 nM” value is reported as “++ (70-90% mRNA knockdown)” and the “mRNA knockdown of transporter gene target transcript, 1 nM” value was “++ (70-90% mRNA knockdown)”. Besides, the “Growth Inhibition in A549 cells” value in the data set on A549 cells is “− (no growth inhibition)”.
For “SEQ ID NO: 4967: siRNA targeting ATP7B (chain 1 AATTCTGGTTAGCAGAAGATAAAGG; chain 2 AAUUCUGGUUAGCAGAAGAUAAAGG; chemistry not given here; one strand in two spellings)”, in data set [1], the “mRNA knockdown … 0.1 nM” value was “− (<50% mRNA knockdown)” and the “mRNA knockdown of transporter gene target transcript, 1 nM” value is “− (<50% mRNA knockdown)”. Moreover, the “Growth Inhibition in A549 cells” value in the data set with A549 cells is “+ (inhibits by at least 50%)”.
In the case of “SEQ ID NO: 4918: siRNA targeting SLC23A2 (SVCT2) (chain 1 AATCCAAGCACAAAGAGGTTCCGGG; chain 2 AAUCCAAGCACAAAGAGGUUCCGGG; Antisense strand given in DNA and RNA notation, chemistry not given here; one strand in two spellings)”, in data set [1], the “mRNA knockdown … 0.1 nM” value is “++ (70-90% mRNA knockdown)” and the “mRNA knockdown of transporter gene target transcript, 1 nM” value is listed as “++ (70-90% mRNA knockdown)”. Also, the “Growth Inhibition in A549 cells” value in the data set with A549 cells is “− (no growth inhibition)”.
As for “SEQ ID NO: 4921: siRNA targeting SLC9A1 (NHE1) (chain 1 ATCAGTGACGGAATGATTAACAGGG; chain 2 AUCAGUGACGGAAUGAUUAACAGGG; chemistry not given here; one strand in two spellings)”, in data set [1], the “mRNA knockdown … 0.1 nM” value was “++ (70-90% mRNA knockdown)” and the “mRNA knockdown of transporter gene target transcript, 1 nM” value is “++ (70-90% mRNA knockdown)”. For the same substance, the “Growth Inhibition in A549 cells” value in the data set with A549 cells was “− (no growth inhibition)”.
On to “SEQ ID NO: 4907: siRNA targeting SLC3A2 (4F2hc) (chain 1 TTTGTTGGATTCGAGTAGGCTCAGG; chain 2 UUUGUUGGAUUCGAGUAGGCUCAGG; Antisense strand given in DNA and RNA notation, chemistry not given here; one strand in two spellings)”, for which, in data set [1], the “mRNA knockdown … 0.1 nM” value is “− (<50% mRNA knockdown)” and the “mRNA knockdown of transporter gene target transcript, 1 nM” value is on record as “− (<50% mRNA knockdown)”. Moreover, the “Growth Inhibition in A549 cells” value with A549 cells is given as “− (no growth inhibition)”.
Consider “SEQ ID NO: 4935: siRNA targeting SLC29A2 (ENT2) (chain 1 TAACACACGATGGACATGAGGATGC; chain 2 UAACACACGAUGGACAUGAGGAUGC; chemistry not given here; one strand in two spellings)”, for which, in data set [1], the “mRNA knockdown … 0.1 nM” value is reported as “+ (50-70% mRNA knockdown)” and the “mRNA knockdown of transporter gene target transcript, 1 nM” value was “+ (50-70% mRNA knockdown)”. Besides, the “Growth Inhibition in A549 cells” value in the data set with A549 cells is listed as “− (no growth inhibition)”.
For “SEQ ID NO: 4975: siRNA targeting ABCC5 (MRP5) (chain 1 ATTCTGAGCTGAGAATGCATGGAGG; chain 2 AUUCUGAGCUGAGAAUGCAUGGAGG; chemistry not given here; one strand in two spellings)”, in data set [1], the “mRNA knockdown … 0.1 nM” value was “− (<50% mRNA knockdown)” and the “mRNA knockdown of transporter gene target transcript, 1 nM” value is recorded as “+ (50-70% mRNA knockdown)”. Also, the “Growth Inhibition in A549 cells” value with A549 cells is listed as “++ (inhibits by at least 75%)”.
Consider “SEQ ID NO: 4901: siRNA targeting SLC7A5 (LAT1) (chain 1 AGCGTCATCACACACGTGAACACGA; chain 2 AGCGUCAUCACACACGUGAACACGA; Antisense strand given in DNA and RNA notation, chemistry not given here; one strand in two spellings)”, for which, in data set [1], the “mRNA knockdown … 0.1 nM” value is “++ (70-90% mRNA knockdown)” and the “mRNA knockdown of transporter gene target transcript, 1 nM” value is “++ (70-90% mRNA knockdown)”. For the same substance, in the data set with A549 cells, the “Growth Inhibition in A549 cells” value is reported as “− (no growth inhibition)”.
As for “SEQ ID NO: 4894: siRNA targeting SLC2A1 (GLUT1) (chain 1 TGACACTTCACCCACATACATGGGC; chain 2 UGACACUUCACCCACAUACAUGGGC; Antisense strand given in DNA and RNA notation, chemistry not given here; one strand in two spellings)”, in data set [1], the “mRNA knockdown … 0.1 nM” value was “− (<50% mRNA knockdown)” and the “mRNA knockdown of transporter gene target transcript, 1 nM” value is listed as “++ (70-90% mRNA knockdown)”. Besides, the “Growth Inhibition in A549 cells” value in the data set on A549 cells is recorded as “− (no growth inhibition)”.
For “SEQ ID NO: 4892: siRNA targeting SLC2A1 (GLUT1) (chain 1 TGTCTTATCACTTTGGCTGGCTCCC; chain 2 UGUCUUAUCACUUUGGCUGGCUCCC; Antisense strand given in DNA and RNA notation, chemistry not given here; one strand in two spellings)” the same measures were “− (<50% mRNA knockdown)”, “− (<50% mRNA knockdown)” and “+ (inhibits by at least 50%)”.
With “SEQ ID NO: 4930: siRNA targeting SLC25A10 (DIC) (chain 1 TCCTGACGTTGACCAAGTCTGCGGG; chain 2 UCCUGACGUUGACCAAGUCUGCGGG; chemistry not given here; one strand in two spellings)”, in data set [1], the “mRNA knockdown … 0.1 nM” value was “++ (70-90% mRNA knockdown)” and the “mRNA knockdown of transporter gene target transcript, 1 nM” value was “++ (70-90% mRNA knockdown)”. In the data set on A549 cells, the “Growth Inhibition in A549 cells” value is listed as “− (no growth inhibition)”.
